Experimental data: patent US20250345356A1, “TIRAPAZAMINE COMPOSITIONS AND METHODS” (priority 2024, published 2025)

Experiment: PK of TPZ and metabolites SR4317 and SR4330 after intra-arterial injection of TPZ in NS vs HPβCD
Assay type: in vivo, Sprague Dawley rats
Settings: for AUClast, HβC Mean / Cmax, HβC Mean / AUClast, Normal Saline (NS) Mean / Cmax, Normal Saline (NS) Mean: rats
Source text: Purpose of the study: To evaluate the pharmacokinetics (PK) of tirapazamine and its metabolites, SR4317 and SR4330 [Graham, M A et al. Cancer Chemother. Pharmacol. (1997) 40 (1): 1-10], after injection of TPZ in 1% HPβCD or normal saline.
Animals: Twenty-four female (12) and male (12) Sprague Daley (SD) rats, weight 200-250 grams, respectively, with femoral artery and jugular vein cannulated, were purchased from, Taconic. Two extra cannulated male and female rates were used to test tolerability with buffer. Each rate was housed individually to safeguard the vessel catheters.
The study parameters are shown in Table 22. began after a 3-day period of adjustment to the animal facility. The study compound was injected into the femoral artery catheter (FAC at 2-1 m (by slow injection. Blood samples were collected from a jugular vein catheter (JVC) at 6 timepoints: 0 (baseline) and after drug administration at 15 and 30 minutes, 1 hr, 2 hr, and 6 hours. The volume of blood sample for each time point was approximately 0.6 mL. Plasma samples were collected in tubes containing sodium heparin as anti-coagulant. Plasma was prepared and frozen in −80° C. Rats were euthanized after the last blood sample (euthanized after the 6 hr time point).
Male rats were around 250 grams, and female 200 grams. There were 8 groups with Groups 1-4 females, and […]. Each group had 3 rats. TPZ was dissolved in NS or […] at a concentration 0.7 mg/mL.
The concentrations of TPZ and its metabolites, SR4317 and SR4330, in rat plasma samples were analyzed using liquid chromatography Tandem Mass Spectrometry (LC-MS) by Primera Analytical Solutions Corp (Princeton, NJ). Standards for TPZ, SR4317 and SR4330 were provided by Teclison, Inc. (Princeton, NJ) for calibration. All analytical data were reviewed for completeness and accuracy. Data transferred manually was cross-checked against source data which was part of the study raw data.
LC-MS analysis was conducted with Sciex 4000 with a Shimadzu LC-30 System.
The concentration data was imported and plotted with SAS program as ADPC (Analysis Dataset of Pharmacokinetics Concentrations) dataset. PK parameters calculated based on ADPC were output as an Analysis Dataset of Pharmacokinetics Parameters (ADPP) dataset.
PK parameters of each profile were calculated by non-compartmental analysis using SAS programming. BLQ (Below the Limit of Quantification) observation prior to the first measurable concentration was imputed as zero, otherwise, the BLQ observation was left as missing.
An apparent first-order terminal elimination rate constant (Kel) was calculated by linear least-squares regression analysis using at least three points (excluding Cmax) in the terminal log-linear phase. Uniform weighting was adopted when performing regression analysis. Linear-up/log-down approach was utilized to calculate AUC.
A linear model was built to evaluate the effect of solution on the PK parameters, adjusting for sex and dose. The model included sex (F, M), solution type (Normal saline, Hydroxypropyl-beta-Cyclodextrin “HP-beta-CD”), and dose (mg) as fixed effects. Sex and solution type are categorical variables (meaning a variable based on a qualitative, not numerical, property) and dose is a continuous variable (meaning a random variable that can take on an infinite number of values within a certain interval that represents measurable data). Separate models were built for each combination of analyte (TPZ, SR4317 and SR4330) and PK parameters (AUClast and Cmax) using the BY statement, which divides the observations from an input data set into groups for processing.
The difference of lease squared means between solution types was estimated. 95% confidence intervals (CI), and p-values for the difference were presented. The significance level (alpha) was set at 0.05, meaning that a p-value less than 0.05 was considered statistically significant.

[1] = intra-arterial TPZ 3.33 mg/kg in HPβCD
[2] = intra-arterial TPZ 3.33 mg/kg in NS
[3] = intra-arterial TPZ 7 mg/kg in HPβCD
[4] = intra-arterial TPZ 7 mg/kg in NS

## Nc1n[n+]([O-])c2ccccc2[n+]1[O-] [tirapazamine, 3-amino-1,2,4-benotriazine-1,4-di-N-oxide]
3.33 mg/kg
  AUClast HβC/NS Ratio (%): 86.94%
  Cmax HβC/NS Ratio (%): 91.15%
3.33 mg/kg vs. 7 mg/kg in either solvent
  dose proportionality of plasma concentrations: dose proportional effect was observed
7 mg/kg
  AUClast HβC/NS Ratio (%): 94.02%
  Cmax HβC/NS Ratio (%): 101.02%
FIG. 23
  plasma concentrations, TPZ in NS versus HPβCD: no difference
[1]
  AUClast, HβC Mean: 781.49 ng·h/mL
  Cmax, HβC Mean: 1476.67 ng/mL
[2]
  AUClast, Normal Saline (NS) Mean: 898.92 ng·h/mL
  Cmax, Normal Saline (NS) Mean: 1620.00 ng/mL
[3]
  AUClast, HβC Mean: 2423.84 ng·h/mL
  Cmax, HβC Mean: 4468.33 ng/mL
[4]
  AUClast, Normal Saline (NS) Mean: 2578.02 ng·h/mL
  Cmax, Normal Saline (NS) Mean: 4423.33 ng/mL
